{
  "source": "patent US8372967B2",
  "about": "“Compounds and methods for modulating expression of GCCR” (Isis Pharmaceuticals, Inc., priority 2006, dated 2013)",
  "key": {"[1]": {"assay": "Plasma glucose in ZDF rat (Table 71)", "assay_type": "in vivo", "conditions": "ZDF rat, 400 nM/kg i.p. once a week", "description": "(§1) ISIS 388625, 388626 and control oligo ISIS 388628 were analyzed for their effect on ZDF rat plasma glucose levels and HbA1c. The leptin receptor deficient Zucker diabetic fatty (ZDF) rat is a useful model for the investigation of type 2 diabetes. Diabetes develops spontaneously in these male rats at ages 8-10 weeks, and is associated with hyperphagia, polyuria, polydipsia, and impaired weight gain, symptoms which parallel the clinical symptoms of diabetes (Phillips M S, et al., 1996, Nat Genet. 13, 18-19). Six week old ZDF rats were injected intraperitoneally with short antisense compound at a dose of 400 nM/kg once a week for twelve weeks. Data are illustrated in Tables 71 and 72."}, "[2]": {"assay": "HbA1c status in ZDF rat (Table 72)", "assay_type": "in vivo", "conditions": "ZDF rat, 400 nM/kg i.p. once a week", "description": "as §1"}, "ApoB mRNA": {"test_system": "ApoB mRNA", "assay": "ApoB mRNA in liver and estimated ED50, compounds comprising palmitic acid conjugates (Table 95)", "assay_type": "in vivo, mouse", "conditions": "ApoB mRNA in liver, Balb/c mice, relative to saline", "description": "0.4, and 0.16 umol/kg. Each dose group consisted of four animals. A 5-10-5 MOE gapmer was used for a control treatment. Mice were sacrificed approximately 48 hours following the final dose. Liver tissue was collected for RNA isolation, and blood was collected for serum chemistry analyses. ApoB mRNA levels were measured by real-time PCR as described herein. ApoB mRNA levels were normalized to RNA levels as determined by RIBOGREEN, and are presented in Table 95 as percent inhibition relative to ApoB mRNA levels in saline-treated control animals.\nAt the 2.5 umol/kg dose, ApoB inhibition by the short antisense compounds was greater than observed with a 5-10-5 MOE gapmer at an equivalent dose. […] Triglycerides were reduced at the 2.5 and […] doses of ISIS 387462 and ISIS 391872."}, "GCGR mRNA": {"test_system": "GCGR mRNA", "assay": "Antisense inhibition of GCGR in HepG2 cells (Table 79)", "assay_type": "cell-based, human", "conditions": "HepG2, 25, 50, 100 or 200 nM", "description": "Short antisense compounds targeted to a GCGR nucleic acid were tested for their effects on GCGR mRNA in vitro.\nCultured HepG2 cells at a density of 10000 cells per well in a 96-well plate were treated as described herein with 25, 50, 100 or 200 nM of antisense oligonucleotide. After the treatment period, RNA was isolated from the cells and GCGR mRNA levels were measured by quantitative real-time PCR, as described herein. GCGR mRNA levels were adjusted according to total RNA content as measured by RIBOGREEN®. Results are presented as percent reduction in GCGR mRNA, relative to untreated control cells."}, "[3]": {"conditions": "single i.p. injection 0.16 umol/kg"}, "[4]": {"conditions": "single i.p. injection 0.4 umol/kg"}, "[5]": {"conditions": "single i.p. injection 1.0 umol/kg"}},
  "note": "Strand notation (5' to 3'): a small letter for the sugar, then the base; units joined by * are phosphorothioate-linked, units joined directly phosphodiester-linked; [ ] holds rarer units or linkages, { } end groups; capitals alone tell only the bases. [PAM-N] = nucleoside carrying a 2'-(butylacetamido)-palmitamide group (palmitic acid C16 conjugate) (N: the base); e = 2'-O-(2-methoxyethyl) (MOE); l = locked nucleic acid (LNA); [5mC] = 5-methylcytosine; d = 2'-deoxy (DNA)",
  "data": [
    {"substance": "388626 (eG*eG*d[5mC]*dA*dT*dG*dA*dG*d[5mC]*dT*eT*e[5mC]) [compound 388626]", "values": [
      {"measurement": "Plasma glucose levels", "setting": "[1]; Day 10", "result": 434.7, "unit": "mg/dL"},
      {"measurement": "Plasma glucose levels", "setting": "[1]; Day 40", "result": 300.5, "unit": "mg/dL"},
      {"measurement": "Plasma glucose levels", "setting": "[1]; Day 55", "result": 219.8, "unit": "mg/dL"},
      {"measurement": "Plasma glucose levels", "setting": "[1]; Day 66", "result": 379.8, "unit": "mg/dL"},
      {"measurement": "Percentage HbA1c", "setting": "[2]; Day 40", "result": 6.6, "unit": "%"},
      {"measurement": "Percentage HbA1c", "setting": "[2]; Day 55", "result": 5.9, "unit": "%"},
      {"measurement": "Percentage HbA1c", "setting": "[2]; Day 68", "result": 4.0, "unit": "%"}
    ]},
    {"substance": "391871 ([PAM-G]*eG*dT*dA*dC*dA*dT*dG*dG*dA*dA*dG*eT*e[5mC]) [compound 391871]", "values": [
      {"measurement": "% Inhib", "setting": "ApoB mRNA; [3]", "result": 0, "unit": "%"},
      {"measurement": "% Inhib", "setting": "ApoB mRNA; [4]", "result": 5, "unit": "%"},
      {"measurement": "% Inhib", "setting": "ApoB mRNA; [5]", "result": 18, "unit": "%"}
    ]},
    {"substance": "391872 ([PAM-G]*lG*dT*dA*dC*dA*dT*dG*dG*dA*dA*dG*lT*l[5mC]) [compound 391872]", "values": [
      {"measurement": "% Inhib", "setting": "ApoB mRNA; [3]", "result": 18, "unit": "%"},
      {"measurement": "% Inhib", "setting": "ApoB mRNA; [4]", "result": 50, "unit": "%"},
      {"measurement": "% Inhib", "setting": "ApoB mRNA; [5]", "result": 92, "unit": "%"}
    ]},
    {"substance": "ISIS 327161: 3-10-3 MOE gapmer targeted to GCGR (eA*eG*e[5mC]*dT*dG*d[5mC]*dT*dG*dT*dA*d[5mC]*eA*eT*e[5mC])", "values": [
      {"measurement": "GCGR mRNA", "setting": "GCGR mRNA", "result": "reduced GCGR mRNA in a dose-dependent manner"}
    ]}
  ]
}
